From ChEMBL document CHEMBL3132742, “Hydrogen sulfide donors in research and drug development” (2014)

Assays:
HT-29 [1] = experiment: Anticancer activity against human HT-29 cells xenografted in mouse model assessed as reduction in tumor volume relative to control; assay type: functional
HT-29 [2] = experiment: Anticancer activity against human HT-29 cells xenografted in mouse model assessed as suppression of cancer cell growth relative to control; assay type: functional

SMILES: O=C(CCCO[N+](=O)[O-])Oc1ccccc1C(=O)Oc1ccc(-c2cc(=S)ss2)cc1
- inhibition (INH) (HT-29 [1]): 85%
- fold change (FC) (HT-29 [2]): 9000
